Consider 10 compounds from ChEMBL document CHEMBL1201862, “PubChem BioAssay data set” (2004).

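Following 48 hours of exposure in 96-well plates, responses at five concentrations were used to interpolate endpoints linearly. GI50: concentration for 50% inhibition of growth.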 The source made the active and inactive calls. No stated cut-off is given here; in the data, active = GI50 up to about 1.1 µM and inactive = higher.

Among the test systems are UACC-257; NCI/ADR-RES; SF-539; A498; SK-MEL-28; LOX IMVI; COLO 205; SF-295; MCF7; HCC 2998; Hs-578T; HOP-62; OVCAR-4; HOP-92; MDA-MB-435; EKVX; SF-268; TK-10; HCT-15; Malme-3M.
Common to all, as to test: DTP human tumour cell line panel, 48 h

As to `CC(C)(C)OC(=O)N1CCC2(CC1)C(=O)NCN2c1ccccc1`, the GI50 in the assay with UACC-257, in the assay with NCI/ADR-RES, in the assay on SF-539, with A498, with SK-MEL-28 and in the assay with LOX IMVI was > 100 µM (inactive) throughout. The GI50 in the assay on COLO 205, in the assay on SF-295, in the assay with MCF7, in the assay with HCC 2998, with Hs-578T and in the assay on HOP-62 was > 100 µM (inactive) throughout. The GI50 with OVCAR-4, in the assay on HOP-92, with MDA-MB-435, with EKVX, in the assay on SF-268 and in the assay on TK-10 was > 100 µM (inactive) each time. Further, the results for the GI50 with HCT-15 and with Malme-3M were more than 100 µM and > 100 µM (inactive), respectively.

For `O=C(/C=C/c1ccc(OCCSCCCCCCCCCCSCCOc2ccc(/C=C/C(=O)c3ccc(Cl)cc3)cc2)cc1)c1ccc(Cl)cc1`, the GI50 (commonly the concentration that inhibits growth by half) in the assay with UACC-257 is > 100 µM (inactive); in the assay with NCI/ADR-RES it was > 100 µM (inactive); in the assay on SF-539 it was 45.6 µM (inactive); in the assay with A498 it was > 100 µM (inactive); with SK-MEL-28 it was > 100 µM (inactive); in the assay with LOX IMVI, > 100 µM (inactive). In addition, the GI50 with COLO 205 was > 100 µM (inactive); in the assay on SF-295, 65.8 µM (inactive); in the assay with MCF7, > 100 µM (inactive); in the assay with HCC 2998, > 100 µM (inactive); in the assay on Hs-578T, > 78.5 µM (inactive); with HOP-62, 51.2 µM (inactive). The GI50 with OVCAR-4 was > 100 µM (inactive); in the assay with HOP-92 it was 47.4 µM (inactive); with MDA-MB-435 it was > 100 µM (inactive); with EKVX, > 100 µM (inactive); in the assay with SF-268, 76 µM (inactive); in the assay on TK-10 it was > 100 µM (inactive). The results for the GI50 in the assay with HCT-15 and in the assay with Malme-3M were more than 100 µM and > 100 µM (inactive), respectively.

With `N#CNC(=N)Nc1ccc(Cl)cc1`, the GI50 in the assay on UACC-257, with NCI/ADR-RES, in the assay with SF-539, with A498, in the assay with SK-MEL-28 and in the assay with LOX IMVI was > 100 µM (inactive) each time. Moreover, the GI50 with COLO 205, in the assay on SF-295, with MCF7, with HCC 2998, in the assay on Hs-578T and with HOP-62 was > 100 µM (inactive) each time. The GI50 in the assay on OVCAR-4, with HOP-92, in the assay on MDA-MB-435, in the assay with EKVX, in the assay with SF-268 and with TK-10 was > 100 µM (inactive) throughout. The GI50 is more than 100 µM with HCT-15 and > 100 µM (inactive) in the assay with Malme-3M.

With `COC(=O)CC1(O)C(/C=C/c2ccccc2)C(C(=O)OC)C(=O)C(C(=O)OC)C1C(=O)OC` (stereo not given), the GI50 was > 100 µM (inactive) in the assay on UACC-257; 85.3 µM (inactive) in the assay on NCI/ADR-RES; > 100 µM (inactive) in the assay on SF-539; > 100 µM (inactive) in the assay on A498; > 100 µM (inactive) in the assay on SK-MEL-28; 26.7 µM (inactive) in the assay with LOX IMVI. Besides, the GI50 in the assay with COLO 205 is > 100 µM (inactive); in the assay on SF-295 it was 18.5 µM (inactive); in the assay with MCF7, 96.8 µM (inactive); in the assay on HCC 2998, > 100 µM (inactive); with Hs-578T, > 100 µM (inactive); in the assay on HOP-62, > 100 µM (inactive). For the same compound, the GI50 with OVCAR-4, with HOP-92, in the assay with MDA-MB-435, with EKVX, in the assay with SF-268 and in the assay with TK-10 was > 100 µM (inactive) each time. Moreover, the figures for the GI50 with HCT-15 and in the assay on Malme-3M were more than 100 µM and > 100 µM (inactive), respectively.

Turning to `CC(=O)OCCn1cnc2nc(Nc3ccccc3)nc(Cl)c21`, the GI50 in the assay with UACC-257 is 76.9 µM (inactive); in the assay with NCI/ADR-RES it was 95.3 µM (inactive); with SF-539, > 100 µM (inactive); with A498 it was > 100 µM (inactive); in the assay with SK-MEL-28 it was > 100 µM (inactive); with LOX IMVI, 44.4 µM (inactive). The GI50 was 47.5 µM (inactive) in the assay with COLO 205; 82 µM (inactive) with SF-295; 46.8 µM (inactive) in the assay on MCF7; 74.5 µM (inactive) with HCC 2998; > 100 µM (inactive) in the assay with Hs-578T; > 100 µM (inactive) in the assay on HOP-62. Further, the GI50 with OVCAR-4 is 43.3 µM (inactive); in the assay with HOP-92 it was 13.6 µM (inactive); in the assay on MDA-MB-435, 25.1 µM (inactive); in the assay on EKVX, > 100 µM (inactive); in the assay with SF-268 it was > 100 µM (inactive); with TK-10, > 100 µM (inactive). Besides, the GI50 with HCT-15 was 45.4 µM; in the assay on Malme-3M, > 100 µM (inactive).

`O=C(O)c1nc2cc(Cl)ccc2[nH]c1=O`: the GI50 with UACC-257, in the assay on NCI/ADR-RES, with SF-539, in the assay on A498, in the assay on SK-MEL-28 and with LOX IMVI was > 100 µM (inactive) each time. The GI50 with COLO 205, with SF-295, with MCF7, in the assay on HCC 2998, in the assay with Hs-578T and with HOP-62 was > 100 µM (inactive) each time. Further, the GI50 with OVCAR-4, in the assay with HOP-92, with MDA-MB-435, with EKVX, in the assay on SF-268 and with TK-10 was > 100 µM (inactive) each time. Further, the GI50 in the assay on HCT-15 was more than 100 µM; in the assay on Malme-3M, > 100 µM (inactive).

In the case of `CC(=O)c1[nH]c(Nc2ccc(C)cc2)c(C(=S)Nc2ccccc2)c1N`, the GI50 was 18.5 µM (inactive) with UACC-257; 26.8 µM (inactive) in the assay on NCI/ADR-RES; 29.2 µM (inactive) with SF-539; 13.8 µM (inactive) in the assay on A498; 19.5 µM (inactive) with SK-MEL-28; 16.4 µM (inactive) with LOX IMVI. Moreover, the GI50 was 23.9 µM (inactive) in the assay with COLO 205; 17.8 µM (inactive) with SF-295; 15.7 µM (inactive) with MCF7; 18.6 µM (inactive) in the assay on HCC 2998; 20 µM (inactive) in the assay on Hs-578T; 20.8 µM (inactive) in the assay on HOP-62. Also, the GI50 in the assay on OVCAR-4 is 17.5 µM (inactive); with HOP-92, 13 µM (inactive); with MDA-MB-435 it was 15 µM (inactive); in the assay with EKVX, 24.3 µM (inactive); in the assay with SF-268, 14.5 µM (inactive); with TK-10 it was 17.3 µM (inactive). Also, the GI50 in the assay on HCT-15 is 18.3 µM; in the assay with Malme-3M, 17.1 µM (inactive).

On to `Nc1nc(SCc2ccccc2[N+](=O)[O-])c2[nH]cnc2n1`, for which the GI50 in the assay with UACC-257 was > 40.1 µM (inactive); in the assay on NCI/ADR-RES it was 26.7 µM (inactive); with SF-539 it was > 100 µM (inactive); in the assay with A498, 18.6 µM (inactive); in the assay with SK-MEL-28, > 61.1 µM (inactive); with LOX IMVI, > 53.3 µM (inactive). The GI50 with COLO 205 was > 45 µM (inactive); in the assay on SF-295 it was > 67.6 µM (inactive); in the assay with MCF7, 51.5 µM (inactive); in the assay with HCC 2998, > 41.5 µM (inactive); with Hs-578T, 1.93 µM (inactive); in the assay on HOP-62, > 69.5 µM (inactive). Further, the GI50 with OVCAR-4 is 62.2 µM (inactive); with HOP-92, 2.23 µM (inactive); with MDA-MB-435 it was 36 µM (inactive); in the assay with EKVX, > 53.5 µM (inactive); with SF-268, > 35.7 µM (inactive); with TK-10 it was > 34.8 µM (inactive). Besides, the GI50 with HCT-15 was more than 56.5 µM; with Malme-3M, > 30.6 µM (inactive).

For the compound `CN1CCN(C(=O)CCC(=O)Nc2cc3c(c4ccccc24)-c2ccc4ccccc4c2C3)CC1`, the GI50 in the assay on UACC-257 is 1.74 µM (inactive); in the assay with NCI/ADR-RES, 2.21 µM (inactive); in the assay with SF-539 it was 1.73 µM (inactive); with A498, 13.8 µM (inactive); in the assay on SK-MEL-28, 1.79 µM (inactive); in the assay with LOX IMVI, 1.77 µM (inactive). The GI50 in the assay on COLO 205 is 1.6 µM (inactive); in the assay on SF-295 it was 1.71 µM (inactive); in the assay with MCF7, 1.51 µM (inactive); in the assay on HCC 2998 it was 1.37 µM (inactive); in the assay with Hs-578T, 2.63 µM (inactive); in the assay with HOP-62, 1.69 µM (inactive). For the same compound, the GI50 in the assay with OVCAR-4 is 1.5 µM (inactive); in the assay on HOP-92, 1.73 µM (inactive); in the assay on MDA-MB-435, 1.51 µM (inactive); in the assay with EKVX, 1.67 µM (inactive); in the assay on SF-268, 1.8 µM (inactive); in the assay on TK-10, 1.73 µM (inactive). The GI50 with HCT-15 is 1.82 µM; with Malme-3M it was 2.03 µM (inactive).

On to `CC(C)(C)c1ccc(OCC(=O)O)c(Cl)c1`, for which the GI50 in the assay on UACC-257, in the assay with NCI/ADR-RES, in the assay on SF-539, in the assay on A498, with SK-MEL-28 and with LOX IMVI was > 100 µM (inactive) throughout. The GI50 in the assay with COLO 205, with SF-295, in the assay on MCF7, with HCC 2998, in the assay on Hs-578T and in the assay on HOP-62 was > 100 µM (inactive) in each case. Also, the GI50 in the assay with OVCAR-4, in the assay on HOP-92, in the assay with MDA-MB-435, in the assay with EKVX, in the assay with SF-268 and with TK-10 was > 100 µM (inactive) throughout. Moreover, the GI50 in the assay with HCT-15 was more than 100 µM; with Malme-3M, > 100 µM (inactive).
